# Measured values reported in paper PMC10897015, “Investigation of anti-nociceptive, anti-inflammatory potential and ADMET studies of pure compounds isolated from Isodon rugosus Wall. ex Benth” (Frontiers in Pharmacology, 2024).
# “And” between values parts separate entries of the source, which are not always exact repeats. Equal entries are not always repeated. Where two headings read alike, the source gives them in different places. Marks after values point to notes of the source that are not given here.
# Tests used:
# [1] = target: T1, COX-2 (Homo sapiens, UniProt P35354); test: Cyclooxygenase-2 inhibitory activity; type: biochemical; conditions: for inhibition at 62.5 µg/mL / inhibition at 250 µg/mL / inhibition at 500 µg/mL / inhibition at 1000 µg/mL: read-out: % inhibition, COX-2 (mean ± SEM); for Percent Inhibition (COX-2), single replicates: replicates 1-3; for IC50: COX-2
# T1 sequence (P35354 18-604): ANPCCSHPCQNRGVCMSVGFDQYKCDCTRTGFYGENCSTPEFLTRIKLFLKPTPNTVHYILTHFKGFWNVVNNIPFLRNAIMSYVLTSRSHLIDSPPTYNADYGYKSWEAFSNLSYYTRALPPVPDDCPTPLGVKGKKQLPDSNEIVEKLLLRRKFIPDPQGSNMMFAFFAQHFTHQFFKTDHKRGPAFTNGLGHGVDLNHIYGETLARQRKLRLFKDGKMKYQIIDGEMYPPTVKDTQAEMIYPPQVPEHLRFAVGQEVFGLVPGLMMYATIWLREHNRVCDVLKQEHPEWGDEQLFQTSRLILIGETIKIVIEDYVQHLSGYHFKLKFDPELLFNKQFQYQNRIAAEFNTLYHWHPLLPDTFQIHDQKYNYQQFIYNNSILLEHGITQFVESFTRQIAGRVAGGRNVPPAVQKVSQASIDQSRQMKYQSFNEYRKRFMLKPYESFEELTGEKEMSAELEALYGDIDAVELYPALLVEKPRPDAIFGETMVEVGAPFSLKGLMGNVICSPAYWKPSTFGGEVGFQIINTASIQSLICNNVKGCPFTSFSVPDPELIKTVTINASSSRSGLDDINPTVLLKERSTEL
# Experimental: An enzyme solution with a concentration of 300 U/ml was prepared and activated using ice for 5 min with a 50 µL cofactor solution containing glutathione (0.9 mM), TMPD (N,N,N,N_tetramethyl-p-phenylenediaminedihydrochloride) (0.24 mM), and hematin (1 mM) in Tris buffer (0.1 M) with pH 8. The enzyme solution (60 µL) and test samples (20 µL) with various concentrations were incubated at room temperature for 5 minutes. Celecoxib was used as a positive control in the current assay. The absorbance of the samples was measured at 570 nm after the samples had been incubated for 5 min. Arachidonic acid (30 mM, 20 µL) was added to initiate the reaction. The percent inhibition was calculated from the absorbance value per unit time.
# [2] = test system: Swiss albino mice; test: Formalin test with opioid receptor involvement; type: in vivo; conditions: for formalin induced pain, licking time, individual values: single animals
# Experimental: An anti-nociceptive assessment was performed on Swiss albino mice of both sexes, sourced from the National Institute of Health, Islamabad, Pakistan. […] Mice of either sex were divided into different groups, with five mice in each group. […]
# The analgesic activity of I. rugosus was assessed through a formalin-induced licking test. The test samples were administered orally at specified doses.
# [3] = test system: Swiss albino mice; test: Hot plate test with opioid receptor involvement; type: in vivo; conditions: for Reaction time on hot plate, individual values: single animals; for Reaction time on the hot plate: compounds 50 mg/kg, Mor 5 mg/kg, Nal 1 mg/kg
# [4] = first phase, compounds 50 mg/kg, Mor 5 mg/kg, Nal 1 mg/kg
# [5] = second phase, compounds 50 mg/kg, Mor 5 mg/kg, Nal 1 mg/kg
structure (smiles),measurement,setting,value
"O=C(O)C=Cc1ccc(O)c(O)c1 [Compound 1, 3,4-dihydroxy-cinnamic acid]","% inhibition, COX-2 (mean ± SEM)","[1]; 62.5 µg/ml, listed as Comp 1",51.9833%
same,inhibition at 62.5 µg/mL,[1]; 62.5 µg/ml,51.6 ± 1.2%
same,"% inhibition, COX-2 (mean ± SEM)","[1]; 250 µg/ml, listed as Comp 1",62.5167%
same,inhibition at 250 µg/mL,[1]; 250 µg/ml,62.5 ± 0.84%
same,"% inhibition, COX-2 (mean ± SEM)","[1]; 500 µg/ml, listed as Comp 1",68.4433%
same,inhibition at 500 µg/mL,[1]; 500 µg/ml,68.42 ± 0.64%
same,"% inhibition, COX-2 (mean ± SEM)",[1]; 1000 µg/ml,72.63 ± 0.57 %
same,inhibition at 1000 µg/mL,[1]; 1000 µg/ml,72.8%
same,"Percent Inhibition (COX-2), single replicates","[1]; 62.5, listed as Comp 1",51.85% and 51.98% and 52.12%
same,"Percent Inhibition (COX-2), single replicates","[1]; 125, listed as Comp 1",58.82% and 58.96% and 58.41%
same,"Percent Inhibition (COX-2), single replicates","[1]; 250, listed as Comp 1",62.79% and 63.2% and 61.56%
same,"Percent Inhibition (COX-2), single replicates","[1]; 500, listed as Comp 1",68.4% and 67.99% and 68.94%
same,"Percent Inhibition (COX-2), single replicates","[1]; 1000, listed as Comp 1",72.37% and 73.56% and 71.96%
same,"formalin induced pain, licking time, individual values","[2]; 0-5 minutes, listed as Comp 1",16.3 and 17.41 and 18.2
same,"formalin induced pain, licking time, individual values","[2]; 15-30 minutes, listed as Comp 1",27.57 and 28.5 and 29.36
same,Total time spent in licking 0–5 min,[2]; [4],17.30 ± 0.77 s
same,"Total time spent in licking, % inhibition (0–5 min)",[2]; [4],69.45%
same,Total time spent in licking 0–5 min,"[2]; first phase, compounds 50 mg/kg, Mor 5 mg/kg, Nal 1 mg/kg, listed as Comp 1",17.3033 s
same,Total time spent in licking 15–30 min,[2]; [5],28.48 ± 0.58 s
same,"Total time spent in licking, % inhibition (15–30 min)",[2]; [5],63.97^*** %
same,Total time spent in licking 15–30 min,"[2]; second phase, compounds 50 mg/kg, Mor 5 mg/kg, Nal 1 mg/kg, listed as Comp 1",28.4767 s
same,"Reaction time on hot plate, individual values","[3]; at 15, listed as Comp-1",8.02 and 7.34 and 9.3
same,"Reaction time on hot plate, individual values","[3]; at 30, listed as Comp-1",7.19 and 7.2 and 7.18
same,"Reaction time on hot plate, individual values","[3]; at 45, listed as Comp-1",6.4 and 7.3 and 6.26
same,"Reaction time on hot plate, individual values","[3]; at 60, listed as Comp-1",8.1 and 9.57 and 7.46
same,"Reaction time on hot plate, individual values","[3]; at 90, listed as Comp-1",6.12 and 7.38 and 8.02
same,Reaction time on the hot plate,[3]; at 15 min,08.22 ± 0.07 s
same,Reaction time on the hot plate,"[3]; at 15 min, listed as Comp-1",8.22 s
same,Reaction time on the hot plate,"[3]; at 15 min, listed as compound 1",08.22 ± 0.07 s
same,Reaction time on the hot plate,[3]; at 30 min,07.19 ± 0.08 s
same,Reaction time on the hot plate,"[3]; at 30 min, listed as Comp-1",7.19 s
same,Reaction time on the hot plate,"[3]; at 30 min, listed as compound 1",07.19 ± 0.08 s
same,Reaction time on the hot plate,[3]; at 45 min,6.65 ± 0.05 s
same,Reaction time on the hot plate,"[3]; at 45 min, listed as Comp-1",6.653 s
same,Reaction time on the hot plate,"[3]; at 45 min, listed as compound 1",6.65 ± 0.05 s
same,Reaction time on the hot plate,[3]; at 60 min,8.38 ± 0.41 s
same,Reaction time on the hot plate,"[3]; at 60 min, listed as Comp-1",8.377 s
same,Reaction time on the hot plate,"[3]; at 60 min, listed as compound 1",8.38 ± 0.41 s
same,Reaction time on the hot plate,[3]; at 90 min,7.17 ± 0.57 s
same,Reaction time on the hot plate,"[3]; at 90 min, listed as Comp-1",7.173 s
same,Reaction time on the hot plate,"[3]; at 90 min, listed as compound 1",7.17 ± 0.57 s
"O=C(CCc1ccc(O)cc1)c1c(O)cc(O)cc1O [Compound 2, 2-4-4-6-tetrahydroxy-dihydrochalcone]","% inhibition, COX-2 (mean ± SEM)","[1]; 62.5 µg/ml, listed as Comp 2",31.8267%
same,inhibition at 62.5 µg/mL,[1]; 62.5 µg/ml,31.9 ± 0.92%
same,"% inhibition, COX-2 (mean ± SEM)","[1]; 250 µg/ml, listed as Comp 2",41.1767%
same,inhibition at 250 µg/mL,[1]; 250 µg/ml,41.1 ± 0.24%
same,"% inhibition, COX-2 (mean ± SEM)","[1]; 500 µg/ml, listed as Comp 2",45.1433%
same,inhibition at 500 µg/mL,[1]; 500 µg/ml,45.1 ± 0.22%
same,"% inhibition, COX-2 (mean ± SEM)","[1]; 1000 µg/ml, listed as Comp 2",52.9867%
same,inhibition at 1000 µg/mL,[1]; 1000 µg/ml,53 ± 0.79%
same,"Percent Inhibition (COX-2), single replicates","[1]; 62.5, listed as Comp 2",31.46% and 31.74% and 32.28%
same,"Percent Inhibition (COX-2), single replicates","[1]; 125, listed as Comp 2",37.07% and 37.62% and 35.7%
same,"Percent Inhibition (COX-2), single replicates","[1]; 250, listed as Comp 2",40.49% and 41.18% and 41.86%
same,"Percent Inhibition (COX-2), single replicates","[1]; 500, listed as Comp 2",45.69% and 44.6% and 45.14%
same,"Percent Inhibition (COX-2), single replicates","[1]; 1000, listed as Comp 2",50.07% and 54.17% and 54.72%
same,IC50,[1]; read-out: IC50,2880 µM
same,IC50,[1]; read-out: IC50 (µg/ml) (converted),2880 µM
same,"formalin induced pain, licking time, individual values","[2]; 0-5 minutes, listed as Comp 2",51.46 and 50.12 and 53.09
same,"formalin induced pain, licking time, individual values","[2]; 15-30 minutes, listed as Comp 2",66.34 and 68.12 and 69.02
same,Total time spent in licking 0–5 min,[2]; [4],51.55 ± 0.99 s
same,Total time spent in licking 0–5 min,"[2]; first phase, compounds 50 mg/kg, Mor 5 mg/kg, Nal 1 mg/kg, listed as Comp 2",51.5567 s
same,Total time spent in licking 15–30 min,[2]; [5],67.83 ± 0.57 s
same,Total time spent in licking 15–30 min,"[2]; second phase, compounds 50 mg/kg, Mor 5 mg/kg, Nal 1 mg/kg, listed as Comp 2",67.8267 s
same,"Reaction time on hot plate, individual values","[3]; at 15, listed as Comp-2",3.02 and 3.9 and 4.6
same,"Reaction time on hot plate, individual values","[3]; at 30, listed as Comp-2",4.1 and 4.17 and 5.3
same,"Reaction time on hot plate, individual values","[3]; at 45, listed as Comp-2",3.12 and 2.58 and 4.1
same,"Reaction time on hot plate, individual values","[3]; at 60, listed as Comp-2",2.3
same,"Reaction time on hot plate, individual values","[3]; at 90, listed as Comp-2",2.06 and 2.49 and 3.99
same,Reaction time on the hot plate,[3]; at 15 min,03.84 ± 0.03 s
same,Reaction time on the hot plate,"[3]; at 15 min, listed as Comp-2",3.84 s
same,Reaction time on the hot plate,[3]; at 30 min,04.52 ± 0.09 s
same,Reaction time on the hot plate,"[3]; at 30 min, listed as Comp-2",4.523 s
same,Reaction time on the hot plate,[3]; at 45 min,3.27 ± 0.48 s
same,Reaction time on the hot plate,"[3]; at 45 min, listed as Comp-2",3.267 s
same,Reaction time on the hot plate,[3]; at 60 min,3.18 ± 0.34 s
same,Reaction time on the hot plate,"[3]; at 60 min, listed as Comp-2",3.183 s
same,Reaction time on the hot plate,[3]; at 90 min,2.85 ± 0.29 s
same,Reaction time on the hot plate,"[3]; at 90 min, listed as Comp-2",2.847 s
